Measurements: ChEMBL document CHEMBL3400056, “Novel thiazolo[3,2-b]-1,2,4-triazoles derived from naproxen with analgesic/anti-inflammatory properties: Synthesis, biological evaluation and molecular modeling studies” (Bioorg Med Chem, 2015)

How the values were obtained:
Mus musculus [1] = assay: Acute toxicity in Swiss albino mouse assessed as mortality at 50 to 100 mg/kg, po measured after 6 hrs to 14 days; format: organism-based; parameters: dose 50-100 mg/kg, route oral; conditions: in vivo
Mus musculus [2] = assay: Analgesic activity in Swiss albino mouse assessed as time of licking paws at 50 mg/kg, po measured after 2 hrs by tail flick test relative to control; format: functional
Mus musculus [3] = assay: Analgesic activity in Swiss albino mouse assessed as latancy of withdrawing tail at 50 mg/kg, po measured after 2 hrs by tail flick test relative to control; format: functional
Mus musculus [4] = assay: Gastrointestinal toxicity in Swiss albino mouse assessed as ulcer index at 100 mg/kg, po measured after 2 hrs; format: organism-based; parameters: dose 100 mg/kg, route oral; conditions: in vivo
Mus musculus [5] = assay: Acute toxicity in Swiss albino mouse assessed as behavioral changes at 50 to 100 mg/kg, po measured up to 14 days; format: organism-based; parameters: dose 50-100 mg/kg, route oral; conditions: in vivo, 336 h
[6] = molecular target: T1, Prostaglandin G/H synthase 1 (Ovis aries, UniProt P05979); assay: Inhibition of ovine recombinant COX-1 using […] as substrate incubated for 10 mins prior to arachidonic acid addition measured after 2 mins by EIA
T1 sequence (P05979 whole entry): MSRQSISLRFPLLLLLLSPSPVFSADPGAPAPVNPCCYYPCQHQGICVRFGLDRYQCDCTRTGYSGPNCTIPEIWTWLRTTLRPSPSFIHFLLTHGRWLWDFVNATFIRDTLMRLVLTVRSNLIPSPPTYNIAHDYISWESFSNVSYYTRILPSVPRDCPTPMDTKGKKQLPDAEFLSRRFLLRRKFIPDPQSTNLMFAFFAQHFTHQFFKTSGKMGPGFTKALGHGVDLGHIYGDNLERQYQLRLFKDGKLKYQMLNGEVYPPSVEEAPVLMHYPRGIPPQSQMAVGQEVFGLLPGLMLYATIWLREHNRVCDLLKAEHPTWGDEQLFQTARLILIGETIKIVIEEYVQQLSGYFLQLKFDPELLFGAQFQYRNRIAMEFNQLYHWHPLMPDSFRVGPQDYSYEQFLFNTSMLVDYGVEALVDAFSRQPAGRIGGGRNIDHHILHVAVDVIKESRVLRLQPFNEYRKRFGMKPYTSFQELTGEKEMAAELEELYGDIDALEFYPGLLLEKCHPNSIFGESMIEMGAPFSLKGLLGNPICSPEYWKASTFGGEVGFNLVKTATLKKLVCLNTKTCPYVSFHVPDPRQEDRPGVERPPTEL

Mus musculus [7] = assay: Gastrointestinal toxicity in Swiss albino mouse assessed as ulcer index at 50 mg/kg, po measured after 2 hrs; format: organism-based; parameters: dose 50 mg/kg, route oral; conditions: in vivo
[8] = molecular target: T2, Prostaglandin G/H synthase 2 (Homo sapiens, UniProt P35354); assay: Inhibition of human recombinant COX-2 using […] as substrate incubated for 10 mins prior to arachidonic acid addition measured after 2 mins by EIA
T2 sequence (P35354 whole entry): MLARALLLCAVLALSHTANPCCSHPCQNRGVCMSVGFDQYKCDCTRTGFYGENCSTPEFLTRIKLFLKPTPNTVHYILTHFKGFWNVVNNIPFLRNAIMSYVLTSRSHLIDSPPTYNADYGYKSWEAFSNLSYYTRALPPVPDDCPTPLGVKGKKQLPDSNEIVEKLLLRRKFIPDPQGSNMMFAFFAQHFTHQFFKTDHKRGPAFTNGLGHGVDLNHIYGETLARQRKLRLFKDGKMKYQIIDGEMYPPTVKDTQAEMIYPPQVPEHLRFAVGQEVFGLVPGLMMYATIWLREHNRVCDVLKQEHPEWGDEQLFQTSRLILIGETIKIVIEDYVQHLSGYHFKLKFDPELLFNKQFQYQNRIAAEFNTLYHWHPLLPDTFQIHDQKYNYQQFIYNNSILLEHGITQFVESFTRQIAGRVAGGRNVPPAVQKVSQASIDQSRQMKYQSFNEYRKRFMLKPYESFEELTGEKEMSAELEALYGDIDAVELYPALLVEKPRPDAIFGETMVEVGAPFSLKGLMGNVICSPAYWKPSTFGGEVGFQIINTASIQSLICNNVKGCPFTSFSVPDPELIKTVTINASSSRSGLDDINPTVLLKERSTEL

Mus musculus [9] = assay: Antiinflammatory activity in Swiss albino mouse assessed as inhibition of carrageenan-induced paw edema at 100 mg/kg, po administered 1 hr prior to carrageenan challenge measured after 2 hrs relative to control; format: functional; parameters: scale not given: the % may be the effect or the level left
Mus musculus [10] = assay: Antiinflammatory activity in Swiss albino mouse assessed as inhibition of carrageenan-induced paw edema at 50 mg/kg, po administered 1 hr prior to carrageenan challenge measured after 2 hrs relative to control; format: functional; parameters: scale not given: the % may be the effect or the level left
Mus musculus [11] = assay: Analgesic activity in Swiss albino mouse assessed as time of licking paws at 100 mg/kg, po measured after 2 hrs by tail flick test relative to control; format: functional
Mus musculus [12] = assay: Analgesic activity in Swiss albino mouse assessed as latancy of withdrawing tail at 100 mg/kg, po measured after 2 hrs by tail flick test relative to control; format: functional
Mus musculus [13] = assay: Acute toxicity in Swiss albino mouse assessed as weight loss at 50 to 100 mg/kg, po measured up to 14 days; format: organism-based; parameters: dose 50-100 mg/kg, route oral; conditions: in vivo, 336 h
[14] = Selectivity ratio of IC50 for ovine recombinant COX-1 to IC50 for human recombinant COX-2
[15] = Acute toxicity in Swiss albino mouse assessed as mortality at 50 mg/kg, po after 12 hrs; format: organism-based; parameters: dose 50 mg/kg, route oral; conditions: in vivo

SMILES | Activity (Mus musculus [1]) | MPE (Mus musculus [2]) | MPE (Mus musculus [3]) | UI (Mus musculus [4]) | Activity (Mus musculus [5]) | IC50 [6] | UI (Mus musculus [7]) | IC50 [8] | Activity (Mus musculus [9]) | Activity (Mus musculus [10]) | MPE (Mus musculus [11]) | MPE (Mus musculus [12]) | Activity (Mus musculus [13]) | Ratio IC50 [14] | mortality at 12 h [15]
COc1ccc2cc(C(C)c3nc4s/c(=C\c5ccc(-c6ccccc6)cc5)c(=O)n4n3)ccc2c1 (configuration not stated) | Non-toxic | 42.1% | 47.1% | 2.6 | Non-toxic | > 100 µM | 1.3 | > 100 µM | 40.9% | 45.3% | 39.8% | 49.1% | Non-toxic | – | –
COc1ccc2cc(C(C)c3nc4s/c(=C\c5ccc(C(C)C)cc5)c(=O)n4n3)ccc2c1 (configuration not stated) | Non-toxic | 27.6% | 36.9% | 2.4 | Non-toxic | 79.6 µM | 2.6 | > 100 µM | 43.3% | 29.3% | 22% | 17.9% | Non-toxic | < 0.796 | –
COc1ccc2cc(C(C)c3nc4s/c(=C\c5ccc(Br)s5)c(=O)n4n3)ccc2c1 (configuration not stated) | Non-toxic | 29% | 38% | 2.6 | Non-toxic | 39.8 µM | 1.8 | 17.3 µM | 51.2% | 51.4% | 24.4% | 41.1% | Non-toxic | 2.3 | –
COc1ccc2cc(C(C)c3nc4s/c(=C\c5cccc6ccccc56)c(=O)n4n3)ccc2c1 (configuration not stated) | Non-toxic | 39.7% | 51.9% | 2.2 | Non-toxic | 85.6 µM | 2.6 | 68.2 µM | 39.6% | 43% | 36.8% | 53.8% | Non-toxic | 1.25 | –
COc1ccc2cc(C(C)c3nc4s/c(=C\C(C)=C\c5ccccc5)c(=O)n4n3)ccc2c1 (configuration not stated) | Non-toxic | 28.7% | 45.3% | 2.3 | Non-toxic | 64.7 µM | 2 | 24.6 µM | 30.7% | 35.4% | 25.9% | 41.1% | Non-toxic | 2.63 | –
COc1ccc2c(c1)c(CC(=O)O)c(C)n2C(=O)c1ccc(Cl)cc1 [INDOMETHACIN] | – | 35.2% | 46.9% | 5.1 | – | – | 4 | – | 50.9% | 46.8% | 40.5% | 46.2% | – | – | 71%
COc1ccc2cc(C(C)c3nc4s/c(=C\c5ccc(C)s5)c(=O)n4n3)ccc2c1 (configuration not stated) | Non-toxic | 34.9% | 32.8% | 2.3 | Non-toxic | > 100 µM | 1.8 | 20.5 µM | 31.1% | 36.7% | 36% | 43.5% | Non-toxic | > 4.87 | –
